Measured values as given in the supplement of paper PMC11997997.

Assays:
[1] = test system: murine bone marrow-derived macrophages; experiment: area under cytotoxicity dose-response curve (AUC (% cytotoxicity x dose, relative)); higher = more cytotoxic; details: duration: 6 days; dose range: 0.13-80 uM, 8 points
Method in brief: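 An 8-point, 2.5-fold dilution series (final 80–0.13 μM) was applied for 6 days at 37 °C in 5% CO2 to primary murine bone marrow-derived macrophages plated in opaque 384-well plates. Promega's CellTiter-Glo luminescence assay measured viability, and percent cytotoxicity was normalised against vehicle and positive control wells. The area under the dose–response curve, worked out in GraphPad Prism version 10, is the reported cytotoxicity measure.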

[2] = test system: Mycobacterium tuberculosis CDC1551 (intracellular, in murine BMDM); experiment: area under intracellular growth-inhibition dose-response curve (AUC (% inhibition x dose, relative)); higher = more potent; details: duration: 6 days; dose range: 0.13-80 uM, 8 points
Method in brief: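 Each value is an area under the growth-inhibition dose–response curve, calculated with GraphPad Prism. Infected primary murine bone marrow-derived macrophages, carrying luciferase-expressing M. tuberculosis CDC1551 at multiplicity of infection 1, were treated for 6 days with an 8-dose, 2.5-fold series (final 80–0.13 μM) in 384-well opaque plates. Readout was by Bright-Glo luciferin assay, normalised to a reference drug control and the lowest-concentration wells.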

Row | SMILES | area under cytotoxicity dose-response curve [1] | area under intracellular growth-inhibition dose-response curve [2]
1 | CN(C)c1ccc(S(=O)(=O)N2CCCCC2)cc1NC(=O)CCNC(=O)c1ccccc1Cl | < 0 | 67.5
2 | CCOc1ccc2oc(C(=O)OCC(=O)N3C(C)CCCC3C)c(C)c2c1 (stereo unspecified) | 105 | 5.04
3 | CC1CCC(C(C)C)C(OC(=O)Cn2c(-c3ccccc3)[n+](C)c3ccccc32)C1.[Cl-] (stereo unspecified) | 12.5 | 124
4 | O=C(COc1ccccc1)N/N=C/c1ccc([N+](=O)[O-])o1 | 14.3 | 209
5 | CCOc1ccc(C(=O)Nc2ccc(NC(=S)NC(=O)CC)cc2)cc1Cl | < 0 | 179
6 | O=[N+]([O-])C(=C\Nc1ccccc1O)/C=N/c1ccccc1O | 3.94 | 57.2
7 | Cc1cc(OCC(=O)N2CCCC2)ccc1Cl | 55.1 | 220
8 | COc1ccc(NS(=O)(=O)c2ccc(N3CCOCC3)c(N)c2)cc1 | < 0 | 34.5
9 | CCc1ccc(C(C)NC(=O)c2cccs2)cc1 (stereo unspecified) | 120 | 123
10 | COc1ccc(/C=N/NC(=O)c2ccncc2)c(OC)c1 | 28 | 227
11 | CCc1ccc(NC(=S)Nc2ccc3c[nH]nc3c2)cc1 | 33.8 | 237
12 | CCCCCCn1c(=O)c(C(=O)Nc2ncccc2C)c(O)c2ccccc21 | 47.2 | 237
13 | CCN(CC)CCNc1nc(-c2ccc(OC)cc2)c(-c2ccc(OC)cc2)s1 | 3.78 | 203
14 | CCN1C(=O)/C(=C\NC2CCCC(C)C2C)SC1=S (stereo unspecified) | 97.6 | 226
15 | O=C(/C=C/c1cccs1)N1CCN(Cc2ccc3c(c2)OCO3)CC1 | < 0 | 271
16 | CC(=O)Nc1ccc(Sc2ccc([N+](=O)[O-])o2)cc1 | 21.3 | 108
17 | CN(CC(=O)Nc1ccc(OC(F)(F)F)cc1)C(=O)c1ccc(N2CCCC2=O)cc1 | 36.3 | 27.6
18 | O=C(C1COc2ccccc2O1)N1CCCCC1 (stereo unspecified) | 76 | 236
19 | CC[C@@H](C)[C@H](CNC)NC[C@@H](Cc1cccc2ccccc12)NCCc1cccc(C(F)(F)F)c1 | 117 | 144
20 | COc1ccc(Cl)cc1NC(=O)C(C)OC(=O)Cn1cc(C(F)(F)F)ccc1=O (stereo unspecified) | 119 | 24.1
21 | COc1ccc2c(c1)c(CC(=O)OCC(=O)O)c(C)n2C(=O)c1ccc(Cl)cc1 | 47.6 | 117
22 | CCOc1ccc2oc(C(=O)OCC(=O)NCc3ccc(OC)cc3)c(C)c2c1 | < 0 | 58.1
23 | O=C(CCc1ccccc1)NC1C2CC3CC(C2)CC1C3 (stereo unspecified) | 3.6 | 194
24 | c1csc(Cc2nn3c(-c4[nH]nc5c4CCC5)nnc3s2)c1 | 44.4 | 251

Row | SMILES | area under cytotoxicity dose-response curve [1] | area under intracellular growth-inhibition dose-response curve [2]
25 | CCOc1ccc(OCCC(=O)NNC(=O)c2ccncc2)cc1 | 1.82 | 272
26 | Cc1c(Cl)cnn1CC(=O)NC1C(=O)N2C(C(=O)O)=C(CSc3nnnn3C)CSC12 (stereo unspecified) | 18.6 | 168
27 | Br.CCCc1cc(-c2nc(-c3ccc(C)cc3)cs2)ccn1 | 45.6 | 80.7
28 | CCCCN1CC(COc2ccccc2)OC1=O (stereo unspecified) | < 0 | 195
29 | CC1(C)C2CCC1(C)C(NC(=O)/C=C/c1ccccc1)C2 (stereo unspecified) | 58.5 | 242
30 | O=C(NC1CCCCCCC1)c1ccco1 | 3.98 | 234
31 | CC(=NNC(=O)c1ccncc1)c1cccc(Br)c1 | < 0 | 234
32 | CC(NC(=O)c1ccc(F)cc1)C1CC2CCC1C2 (stereo unspecified) | 238 | 168
33 | CN(C)S(=O)(=O)c1ccc(C(=O)OCC(=O)Nc2ccc3c(c2)OCO3)cc1 | 38.4 | 11.2
34 | CCC(=O)NC(=S)Nc1ccc(NC(=O)c2ccco2)cc1 | 64.5 | 233
35 | COc1cccc(OCC(=O)NC2CCCCC2)c1 | 94 | 226
36 | CNC(=S)Nc1ccc(-c2nc3ccc(C)cc3s2)cc1 | 5.79 | 262
37 | Brc1ccc(-[n+]2c(-c3ccccc3)cc(-c3ccccc3)cc2-c2ccccc2)cc1.[O-][Cl+3]([O-])([O-])[O-] | 14.7 | 70.1
38 | Cn1c(=O)n(C)c2cc(/C=N/NC(N)=S)ccc21 | < 0 | 262
39 | Cc1ccc(/C=C2\SC(N3CCCC3)=NC2=O)cc1 | 22.9 | 220
40 | O=C1/C(=C/c2cccs2)CCC1C1CCCC1 (stereo unspecified) | < 0 | 132
41 | CNc1ccc2oc(C[C@H]3O[C@@]4(CC[C@H]3C)O[C@H]([C@H](C)C(=O)c3ccc[nH]3)[C@H](C)C[C@H]4C)nc2c1C(=O)O | 9.01 | 148
42 | O=C(CCC1CCCC1)NCc1ccccn1 | < 0 | 240
43 | CCCN=C1C(=O)C2=C(C(O)=C1C)N1CC3NC3[C@@]1(OC)C2COC(N)=O (stereo partly specified) | 121 | 166
44 | CNc1nc(SCc2ccc(C)cc2)nc2c1CCCC2 | 19.6 | 274
45 | Cc1nn2c(O)cc(-c3ccc([N+](=O)[O-])cc3)nc2c1-c1ccccc1 | 99.5 | 128
46 | CC(=O)c1c(C)[n+]([O-])c2cc(C)ccc2[n+]1[O-] | 31.7 | 95.3
47 | CCN(CC)C(=O)CSc1nnc2nnc3cc(Cl)ccc3n12 | 55.1 | 219
48 | Cc1cccc(NC(=O)COC(=O)CCc2c[nH]c3ccccc23)c1C | 28.4 | 27.4
